In patent US4533541A, “Tin-117m-labeled stannic (Sn^4+) chelates” (The United States of America as represented by the United …, priority 1983, dated 1985):
Read-outs that look alike come from different tables or passages of the source.

Details: mouse, in vivo; for Blood, % Dose per Gram / Bone, % Dose per Gram / Kidneys, % Dose per Gram / Liver, % Dose per Gram / % Dose remaining in whole body: iv
Procedure: Tissue distribution studies were done in normal BNL mice. All animals were injected with the appropriate radiopharmaceutical intravenously. A number of time periods up to 7 days after injection were used to collect the data.
Comparative studies were conducted using Sn^2+ chloride (pH 2 and 7), Sn^4+ chloride (pH 2), and Sn(2+ and 4+)-labeled chelates (MDP, DTPA, EHDP, and PYP).
Tissue distribution in mice of Sn(2+ and 4+) chloride (pH 2 and 7), and of the stannous and stannic chelates of MDP, DTPA, PYP, and EHDP is shown in Table 1.

O.O.O=P([O-])([O-])CP(=O)([O-])[O-].[99Tc+4] [^99m Tc-MDP]
Ratio, bone to Blood (30 min): 29
Ratio, bone to Kidney (30 min): 8.1
Ratio, bone to Liver (30 min): 8.4
Ratio, bone to Muscle (30 min): 93
Ratio, bone to Blood (180 min): 85
Ratio, bone to Kidney (180 min): 11
Ratio, bone to Liver (180 min): 13
Ratio, bone to Muscle (180 min): 270
Ratio, bone to Blood (1440 min): 205
Ratio, bone to Kidney (1440 min): 18
Ratio, bone to Liver (1440 min): 14
Ratio, bone to Muscle (1440 min): 375
Blood, % Dose per Gram (0.5 h): 0.41 % Dose per Gram
Bone, % Dose per Gram (0.5 h): 11.80 % Dose per Gram
Kidneys, % Dose per Gram (0.5 h): 1.46 % Dose per Gram
Liver, % Dose per Gram (0.5 h): 1.41 % Dose per Gram
% Dose remaining in whole body (30 min): 33.5 % Dose
% Dose remaining in whole body (180 min): 30.2 % Dose
Blood, % Dose per Gram (3 h): 0.14 % Dose per Gram
Bone, % Dose per Gram (3 h): 12.30 % Dose per Gram
Kidneys, % Dose per Gram (3 h): 1.11 % Dose per Gram
Liver, % Dose per Gram (3 h): 0.97 % Dose per Gram
% Dose remaining in whole body (1440 min): 22.5 % Dose
Blood, % Dose per Gram (24 h): 0.05 % Dose per Gram
Bone, % Dose per Gram (24 h): 10.30 % Dose per Gram
Kidneys, % Dose per Gram (24 h): 0.57 % Dose per Gram
Liver, % Dose per Gram (24 h): 0.73 % Dose per Gram
